Measurements taken from publication PMC6099615, “Anti-glycation, Carbonyl Trapping and Anti-inflammatory Activities of Chrysin Derivatives” (Molecules : A Journal of Synthetic Chemistry and Natural …, 2018).
pIC50: −log10 of the molar value. In brackets after ≈: the same amount, converted by molar mass. Counter-ions that a name gives are not always drawn. Like-named read-outs stand apart in the source and are kept apart here. Marks after values point to notes of the source that are not given here. Values belong to the molecule of their own block, whether it stands above or below them.

Legend:
[1] = Water solubility analysis; assay type: physicochemical; conditions: thermodynamic from solid; distilled water, 37 °C, sonication 1 h
Experimental: CS and derivatives were dissolved in distilled water and incubated at 37 °C with sonication for 1 h to maximize solubility. After sonication, undissolved samples were eliminated by centrifugation (7000× g, 37 °C, 5 min). The supernatants were diluted in methanol and filtered through a 0.45 μm disposable syringe filter (Advantec, Dublin, CA, USA) to analyze the concentration of the samples using HPLC analysis.

[2] = tested on: Amadori compound formation; test: Hemoglobin-δ-gluconolactone assay of Amadori compound formation; assay type: biochemical; conditions: for pIC50: early stage of AGE formation
[3] = tested on: AGEs cross-linking; test: N-acetyl-glycyl-lysine-methyl ester D-ribose assay on AGE cross-linking; assay type: biochemical; conditions: for pIC50: GK peptide-D-ribose, 37 °C, 72 h
Experimental: (§1) This test was used to evaluate the ability of samples to inhibit cross-linking of the GK peptide in the presence of D-ribose using the method described by Hwang et al. The GK peptide (26.7 mg/mL) was incubated with D-ribose (200 mg/mL) in sodium phosphate buffer (0.5 M, pH 7.4) containing 0.2 g/L NaN3 under sterile conditions at 37 °C for 72 h. […] All reagents and samples were sterilized by filtration through […] membrane filters. The fluorescence intensity was measured at an excitation wavelength of 355 nm and an emission wavelength of 460 nm with a Luminescence spectrometer LS50B (Perkin-Elmer Ltd., Buckinghamshire, England). AG was used as a positive control.

[4] = tested on: AGE formation; test: Bovine serum albumin-methylglyoxal assay on AGE formation; assay type: biochemical; conditions: for pIC50: BSA-methylglyoxal, 37 °C, 48 h
Experimental: Bovine serum albumin (50 mg/mL) was incubated at 37 °C for 48 h with methylglyoxal (100 mM) in sodium phosphate buffer (0.1 M, pH 7.4) containing 0.2 g/L NaN3 in the presence of various concentrations of the compounds (including a control).
as §1

[5] = MGO trapping capacity by HPLC (kinetic study of MGO-conjugated adducts)
Experimental: […] The incubated mixture was filtered using a Microcon YM-10 centrifugal filter unit by centrifugation at 5167× g for 30 min at 4 °C. The filtrate was subsequently analyzed by high-performance liquid chromatography (HPLC) using the methods mentioned in the HPLC analysis section. The samples were then stored at −80 °C for further use.
HPLC was performed on an Agilent1100 series system equipped with a diode-array detector (DAD; Agilent, Sunnyvale, CA, USA) consisting of a vacuum degasser (G1322A), a quaternary pump (G1311A), an auto-sampler (G1313A), a thermostat column compartment (G1316A), and a DAD (G1315B). […] Sample injection volume was 10 μL. The samples were eluted with acidified water (0.1% trifluoroacetic acid, A) and MeOH (B) at a flow rate of 0.7 mL/min. The optimized gradient chromatographic conditions were 5–100% B at 0–40 min; 100–5% B at 40–42 min; and isocratic 5% B at 42–45 min. The detector monitored the eluent at a wavelength of 280 nm.

[6] = cited from earlier work
[7] = chrysin:MGO 1:0.1, incubation 1 h
[8] = chrysin:MGO 1:0.1, incubation 3 h
[9] = chrysin:MGO 1:0.1, incubation 6 h
[10] = chrysin:MGO 1:0.1, incubation 12 h
[11] = chrysin:MGO 1:0.1, incubation 36 h
[12] = chrysin:MGO 1:0.1, incubation 48 h
[13] = chrysin:MGO 1:0.5, incubation 1 h
[14] = chrysin:MGO 1:0.5, incubation 3 h
[15] = chrysin:MGO 1:0.5, incubation 6 h
[16] = chrysin:MGO 1:0.5, incubation 12 h
[17] = chrysin:MGO 1:0.5, incubation 36 h
[18] = chrysin:MGO 1:0.5, incubation 48 h
[19] = chrysin:MGO 1:1, incubation 1 h
[20] = chrysin:MGO 1:1, incubation 3 h
[21] = chrysin:MGO 1:1, incubation 6 h
[22] = chrysin:MGO 1:1, incubation 12 h
[23] = chrysin:MGO 1:1, incubation 36 h
[24] = chrysin:MGO 1:1, incubation 48 h
[25] = chrysin:MGO 1:5, incubation 1 h
[26] = chrysin:MGO 1:5, incubation 3 h
[27] = chrysin:MGO 1:5, incubation 6 h
[28] = chrysin:MGO 1:5, incubation 12 h
[29] = chrysin:MGO 1:5, incubation 36 h
[30] = chrysin:MGO 1:5, incubation 48 h
[31] = chrysin:MGO 1:10, incubation 1 h
[32] = chrysin:MGO 1:10, incubation 3 h
[33] = chrysin:MGO 1:10, incubation 6 h
[34] = chrysin:MGO 1:10, incubation 12 h
[35] = chrysin:MGO 1:10, incubation 12 h, listed as CS
[36] = chrysin:MGO 1:10, incubation 36 h
[37] = chrysin:MGO 1:10, incubation 48 h
[38] = chrysin:MGO 1:10, incubation 48 h, listed as CS
[39] = chrysin:MGO 1:10, incubation 48 h, listed as chrysin

solubility at 1 h [1]: 9 µM (≈ 2.9 µg/mL)
SMILES: CC(C)=CCOc1cc(O)c2c(=O)cc(-c3ccccc3)oc2c1 [7-O-Prenylchrysin, 7-O-prenylchrysin]

SMILES: N=C(N)NN [Aminoguanidine, Aminoguanidine hydrochloride, reference compound]
pIC50 [2]: 3.96 | pIC50 [3]: 2.72 | pIC50 [4]: 3.86

pIC50 [2]: 4.76 | solubility at 1 h [1]: 30 µM (≈ 7.63 µg/mL) | pIC50 [3]: < 2.70 | pIC50 [4]: 4.60
SMILES: O=c1cc(-c2ccccc2)oc2cc(O)cc(O)c12 [Chrysin, 5,7-dihydroxyflavone]
inhibitory activity on Amadori compound formation, fold higher than positive control AG ([2]; relative to Aminoguanidine hydrochloride (IC50 = 109.74 μM)): 6.30 fold | HPLC area percentage of chrysin-di-MGO adduct [5, 7]: 0.0% | HPLC area percentage of chrysin-mono-MGO adduct [5, 7]: 1.7% | HPLC area percentage of chrysin-di-MGO adduct [5, 8]: 0.1% | HPLC area percentage of chrysin-mono-MGO adduct [5, 8]: 2.9% | HPLC area percentage of chrysin-di-MGO adduct [5, 9]: 0.1% | HPLC area percentage of chrysin-mono-MGO adduct [5, 9]: 4.0% | HPLC area percentage of chrysin-di-MGO adduct [5, 10]: 0.2% | HPLC area percentage of chrysin-mono-MGO adduct [5, 10]: 7.6% | HPLC area percentage of chrysin-mono-MGO adduct ([5]; chrysin:MGO 1:0.1, incubation 12 h, listed as CS): 8% | HPLC area percentage of chrysin-di-MGO adduct [5, 11]: 1.1% | HPLC area percentage of chrysin-mono-MGO adduct [5, 11]: 19.9% | HPLC area percentage of chrysin-di-MGO adduct [5, 12]: 2.9% | HPLC area percentage of chrysin-mono-MGO adduct [5, 12]: 27.2% | HPLC area percentage of chrysin-di-MGO adduct [5, 13]: 0.0% | HPLC area percentage of chrysin-mono-MGO adduct [5, 13]: 4.1% | HPLC area percentage of chrysin-di-MGO adduct [5, 14]: 0.2% | HPLC area percentage of chrysin-mono-MGO adduct [5, 14]: 7.7% | HPLC area percentage of chrysin-di-MGO adduct [5, 15]: 0.5% | HPLC area percentage of chrysin-mono-MGO adduct [5, 15]: 13.1% | HPLC area percentage of chrysin-di-MGO adduct [5, 16]: 1.1% | HPLC area percentage of chrysin-mono-MGO adduct [5, 16]: 21.4% | HPLC area percentage of chrysin-mono-MGO adduct ([5]; chrysin:MGO 1:0.5, incubation 12 h, listed as CS): 21% | HPLC area percentage of chrysin-di-MGO adduct [5, 17]: 4.1% | HPLC area percentage of chrysin-mono-MGO adduct [5, 17]: 36.5% | HPLC area percentage of chrysin-di-MGO adduct [5, 18]: 7.6% | HPLC area percentage of chrysin-mono-MGO adduct [5, 18]: 45.8% | HPLC area percentage of chrysin-di-MGO adduct [5, 19]: 0.1% | HPLC area percentage of chrysin-mono-MGO adduct [5, 19]: 5.0% | HPLC area percentage of chrysin-di-MGO adduct [5, 20]: 0.3% | HPLC area percentage of chrysin-mono-MGO adduct [5, 20]: 10.8% | HPLC area percentage of chrysin-di-MGO adduct [5, 21]: 0.7% | HPLC area percentage of chrysin-mono-MGO adduct [5, 21]: 18.1% | HPLC area percentage of chrysin-di-MGO adduct [5, 22]: 1.5% | HPLC area percentage of chrysin-mono-MGO adduct [5, 22]: 29.5% | HPLC area percentage of chrysin-mono-MGO adduct ([5]; chrysin:MGO 1:1, incubation 12 h, listed as CS): 30% | HPLC area percentage of chrysin-di-MGO adduct [5, 23]: 6.4% | HPLC area percentage of chrysin-mono-MGO adduct [5, 23]: 45.1% | HPLC area percentage of chrysin-di-MGO adduct [5, 24]: 11.6% | HPLC area percentage of chrysin-mono-MGO adduct [5, 24]: 55.0% | HPLC area percentage of chrysin-di-MGO adduct [5, 25]: 0.3% | HPLC area percentage of chrysin-mono-MGO adduct [5, 25]: 12.4% | HPLC area percentage of chrysin-di-MGO adduct [5, 26]: 0.8% | HPLC area percentage of chrysin-mono-MGO adduct [5, 26]: 19.0% | HPLC area percentage of chrysin-di-MGO adduct [5, 27]: 1.7% | HPLC area percentage of chrysin-mono-MGO adduct [5, 27]: 26.7% | HPLC area percentage of chrysin-di-MGO adduct [5, 28]: 3.6% | HPLC area percentage of chrysin-mono-MGO adduct [5, 28]: 35.6% | HPLC area percentage of chrysin-mono-MGO adduct ([5]; chrysin:MGO 1:5, incubation 12 h, listed as CS): 36% | HPLC area percentage of chrysin-di-MGO adduct [5, 29]: 15.9% | HPLC area percentage of chrysin-mono-MGO adduct [5, 29]: 49.1% | HPLC area percentage of chrysin-di-MGO adduct [5, 30]: 25.2% | HPLC area percentage of chrysin-mono-MGO adduct [5, 30]: 57.5% | HPLC area percentage of chrysin-di-MGO adduct [5, 31]: 0.5% | HPLC area percentage of chrysin-mono-MGO adduct [5, 31]: 11.9 ^a % | HPLC area percentage of chrysin-di-MGO adduct [5, 32]: 1.0% | HPLC area percentage of chrysin-mono-MGO adduct [5, 32]: 21.0% | HPLC area percentage of chrysin-di-MGO adduct [5, 33]: 1.9% | HPLC area percentage of chrysin-mono-MGO adduct [5, 33]: 31.9% | HPLC area percentage of chrysin-di-MGO adduct [5, 34]: 5.7% | HPLC area percentage of chrysin-mono-MGO adduct [5, 34]: 42.1% | HPLC area percentage of chrysin-di-MGO adduct [5, 35]: 6% | HPLC area percentage of chrysin-mono-MGO adduct [5, 35]: 42% | HPLC area percentage of chrysin-di-MGO adduct [5, 36]: 17.3% | HPLC area percentage of chrysin-mono-MGO adduct [5, 36]: 57.4% | HPLC area percentage of chrysin-di-MGO adduct [5, 37]: 29.7% | HPLC area percentage of chrysin-mono-MGO adduct [5, 37]: 63.9% | HPLC area percentage of chrysin-di-MGO adduct [5, 38]: 30% | HPLC area percentage of chrysin-mono-MGO adduct [5, 38]: 64% | HPLC area percentage of chrysin-di-MGO adduct [5, 39]: 29.69% | HPLC area percentage of chrysin-mono-MGO adduct [5, 39]: 63.86% | CS–di MGO adduct formation across ratios ([5]; ratios shown in Table 2B): 0.2–3% | inhibitory activity against AGEs cross-linking ([3]; at a concentration of 10.0 mg/mL): no inhibitory activities | activity against AGE formation, fold higher than AG ([4]; relative to AG (IC50 = 136.79 μM)): 5.48 fold

SMILES: C[N+](C)(C)C[C@H](O)CC(=O)[O-] [L-carnitine]
bioavailability ([6]; oral administration): 14–18%

SMILES: CC(=O)O[C@H](CC(=O)[O-])C[N+](C)(C)C [acetyl-L-carnitine]
bioavailability ([6]; in vivo, po): 43%
